Laboratory results taken from patent US20080199503A1, “Pharmaceutical Compositions Preparation of Peptides, Secreted by the Snake Venom Glands, Particularly of Bothrops Jararaca, Vasopeptidases Inhibitors, Evasins, Their Analogues, Derivatives and Products Associated, Thereof, for Development of Applications and Use in Chronic-Degenerative Diseases” (priority 2002, published 2008).
Square brackets hold non-standard residues; d marks the D form. Ends that are not written are not given here. Peptide text beside a SMILES is read from it. pGlu = O=C1CC[C@@H](C(=O)O)N1

B1: EVASIN-13a (peptide)
peptide: [pGlu]GGWPRPGPEIPP
B2: EVASIN-9a (peptide)
peptide: EWPRPQIPP
modifications: pyroglutamic acid (<E) at position 1 (N-terminus)
B3: EVASIN-12b (peptide)
peptide: [pGlu]WGRPPGPPIPP
B4: EVASIN-10a (peptide)
peptide: [pGlu]SWPGPNIPP
B5: EVASIN-12a (peptide)
peptide: [pGlu]GWAWPRPQIPP
B6: EVASIN-5a (peptide)
peptide: [pGlu]KWAP
B7: EVASIN-11b (peptide)
peptide: [pGlu]GRAPGPPIPP
B8: EVASIN-7a (peptide)
peptide: [pGlu]DGPIPP
B9: EVASIN-11c (peptide)
peptide: [pGlu]GRAPHPPIPP

Columns and labels:
[1] = target: C-terminal catalytic site of the Angiotensin I converting enzyme (recombinant ACE) (Homo sapiens, UniProt P12821); assay: Inhibition of the C-terminal catalytic site of recombinant ACE (fluorogenic substrate); type: biochemical
Procedure: (§1) The fractions from purification were submitted to mass spectrometry analysis to conforming the Evasins molar mass after purification. • The enzyme assays for the recombinant ACE inhibition were conducted using the substrate Mca-Ala-Ser-Asp-Lys-DpaOH, at 25° C., in a 50 mM Hepes buffer (pH 6.8), 200 mM NaCl and […] ZnCl2.

[2] = target: N-terminal catalytic site of the Angiotensin I converting enzyme (recombinant ACE) (Homo sapiens, UniProt P12821); assay: Inhibition of the N-terminal catalytic site of recombinant ACE (fluorogenic substrate); type: biochemical
Procedure: as §1

[3] = system: anesthetized normotensive rats (WKY) blood pressure; assay: Potentiation of the bradykinin hypotensive effect on anesthetized rat blood pressure; type: in vivo; settings: for Bk potentiation(%): hypotension increase of a single bradykinin dose after 200 nmol of potentiator i.v., anesthetized rats; for Duration time: time to reduce the potentiating effect by 50%, 200 nmol/rat i.v., unit not given, minutes
Procedure: The potentiating activity of the bradykinin hypotensive effect was tested in anesthetized rats. Normotensive male rats (WKY) were anesthetized using pentobarbital sodium (Hypnol® Cristália, 50 mg/kg, intraperitoneal) and placed on a controlled-temperature board for maintaining the body temperature between 36.5° C. and 37° C. A polygraph coupled to a physiological transducer was used. The blood pressure ranging values were obtained by integrating the areas limited by the baseline pressure and comparing them to the values obtained from control assays. In in vivo assays, the potentiating activity of Evasins on the hypotensive effect of bradykinin on anesthetized rat blood pressure was observed. Two parameters were determined for comparison of the potentiating effects of bradykinin on the anesthetized rat blood pressure (n=5):
1) Intensity of the potentiating effect of the hypotensive activity of bradykinin on the anesthetized rats blood pressure: This value was defined as the hypotension percentage (%) increase caused by a single dose of bradykinin obtained after the infusion of 200 nmol of potentiator. 2) Potentiating effect length: Time required to reduce the potentiating effect on a single dose of bradykinin by 50%.

[4] = target: neutral endopeptidase (recombinant NEP) (Homo sapiens, UniProt P08473); assay: Fluorometric assay of recombinant NEP inhibition; type: biochemical
neutral endopeptidase (recombinant NEP), sequence (P08473 whole entry, species assumed): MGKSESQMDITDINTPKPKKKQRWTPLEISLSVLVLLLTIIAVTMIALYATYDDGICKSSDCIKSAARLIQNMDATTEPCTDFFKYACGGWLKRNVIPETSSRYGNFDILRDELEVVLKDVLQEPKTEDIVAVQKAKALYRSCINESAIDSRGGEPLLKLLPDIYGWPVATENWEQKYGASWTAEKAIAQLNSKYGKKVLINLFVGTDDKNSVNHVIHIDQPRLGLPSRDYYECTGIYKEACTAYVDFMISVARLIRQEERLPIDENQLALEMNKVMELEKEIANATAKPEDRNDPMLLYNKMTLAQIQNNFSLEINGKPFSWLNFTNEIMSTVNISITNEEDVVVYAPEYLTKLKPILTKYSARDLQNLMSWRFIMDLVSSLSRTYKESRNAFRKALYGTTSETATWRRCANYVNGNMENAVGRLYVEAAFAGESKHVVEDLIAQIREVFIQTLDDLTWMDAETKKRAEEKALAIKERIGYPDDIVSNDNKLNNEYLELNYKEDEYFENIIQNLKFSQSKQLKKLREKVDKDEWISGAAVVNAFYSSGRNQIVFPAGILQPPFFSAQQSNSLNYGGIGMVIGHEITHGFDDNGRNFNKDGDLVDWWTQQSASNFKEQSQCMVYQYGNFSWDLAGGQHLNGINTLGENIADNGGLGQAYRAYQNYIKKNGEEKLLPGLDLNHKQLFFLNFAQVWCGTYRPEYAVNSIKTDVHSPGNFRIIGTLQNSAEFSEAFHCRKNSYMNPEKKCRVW
Procedure: The fluorometric assays for the recombinant NEP inhibition were conducted using the substrate Abz-RL-EDDnp in a 50 mM Tris-HCl buffer, pH 7.5, at 37° C. […] The Evasins were pre-incubated with the enzyme before the substrate addition.
The inhibition constants (Ki) values were determined by means of the ratio of the apparent inhibition constant (Ki(app)) and the substrate Km (Salvesen and Nagase, 1990). In: Proteolytic enzymes a practical aproach, Beynon and Bond Eds Oxford University Press, England, 87-88).

[5] = target: recombinant neutral endopeptidase; assay: fluorogenic substrate (Abz-RL-EDDnp) inhibition assay, recombinant NEP
[6] = target: T1, recombinant Angiotensin I converting enzyme, C-terminal catalytic site
T1 chain: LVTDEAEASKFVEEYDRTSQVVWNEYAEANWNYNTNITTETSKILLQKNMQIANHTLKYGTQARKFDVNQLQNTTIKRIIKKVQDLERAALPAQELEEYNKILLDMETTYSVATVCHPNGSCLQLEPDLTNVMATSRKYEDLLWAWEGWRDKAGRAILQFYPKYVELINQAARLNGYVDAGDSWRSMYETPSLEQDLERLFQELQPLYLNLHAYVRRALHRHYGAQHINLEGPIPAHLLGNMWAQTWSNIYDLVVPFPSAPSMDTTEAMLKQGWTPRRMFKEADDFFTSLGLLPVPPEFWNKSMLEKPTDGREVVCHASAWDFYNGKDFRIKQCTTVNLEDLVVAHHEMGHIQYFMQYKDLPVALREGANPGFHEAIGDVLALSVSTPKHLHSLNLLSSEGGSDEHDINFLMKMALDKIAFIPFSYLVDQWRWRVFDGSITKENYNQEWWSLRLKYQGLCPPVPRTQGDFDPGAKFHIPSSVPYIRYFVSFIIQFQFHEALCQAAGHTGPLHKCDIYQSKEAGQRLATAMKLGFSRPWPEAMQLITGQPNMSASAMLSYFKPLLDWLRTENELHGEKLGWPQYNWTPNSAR

[7] = target: T2, recombinant Angiotensin I converting enzyme, N-terminal catalytic site
T2 chain: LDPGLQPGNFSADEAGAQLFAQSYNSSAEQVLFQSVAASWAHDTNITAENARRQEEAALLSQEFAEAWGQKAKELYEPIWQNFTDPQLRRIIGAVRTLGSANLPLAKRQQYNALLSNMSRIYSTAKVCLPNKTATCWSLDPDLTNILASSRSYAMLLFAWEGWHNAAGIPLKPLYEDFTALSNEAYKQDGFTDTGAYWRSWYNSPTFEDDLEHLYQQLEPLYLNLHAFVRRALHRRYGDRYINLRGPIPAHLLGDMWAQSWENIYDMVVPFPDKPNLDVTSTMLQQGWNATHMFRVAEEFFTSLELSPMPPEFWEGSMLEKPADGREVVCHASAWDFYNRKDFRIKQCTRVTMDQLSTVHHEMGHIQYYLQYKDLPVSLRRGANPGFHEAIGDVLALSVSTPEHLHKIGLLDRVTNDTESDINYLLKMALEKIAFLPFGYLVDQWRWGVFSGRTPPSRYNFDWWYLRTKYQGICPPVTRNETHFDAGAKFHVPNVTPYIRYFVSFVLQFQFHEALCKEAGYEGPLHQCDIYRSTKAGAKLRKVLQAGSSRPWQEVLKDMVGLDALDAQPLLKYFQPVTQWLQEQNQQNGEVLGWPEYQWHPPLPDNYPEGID

Molecule	Ki [1] [nM]	Ki [2] [nM]	Bk potentiation(%) [3] [%]	Duration time [3]	Ki [4] [nM]	Ki [5] [nM]	Ki [6] [nM]	Ki [7] [nM]
CC[C@H](C)[C@H](NC(=O)[C@H](CC(N)=O)NC(=O)[C@@H]1CCCN1C(=O)CNC(=O)[C@@H]1CCCN1C(=O)[C@H](Cc1c[nH]c2ccccc12)NC(=O)[C@H](CO)NC(=O)[C@@H]1CCC(=O)N1)C(=O)N1CCC[C@H]1C(=O)N1CCC[C@H]1C(=O)O [EVASIN-10a, <ESWPGPNIPP] ([pGlu]SWPGPNIPP-OH; C-terminus assumed)	33	130						
CC[C@H](C)[C@H](NC(=O)[C@@H]1CCCN1C(=O)[C@@H]1CCCN1C(=O)CNC(=O)[C@@H]1CCCN1C(=O)[C@H](C)NC(=O)[C@H](CCCNC(=N)N)NC(=O)CNC(=O)[C@@H]1CCC(=O)N1)C(=O)N1CCC[C@H]1C(=O)N1CCC[C@H]1C(=O)O [EVASIN-11b, <EGRAPGPPIPP] ([pGlu]GRAPGPPIPP-OH; C-terminus assumed)	57	3000	164.3	90	476000			
CC[C@H](C)[C@H](NC(=O)[C@@H]1CCCN1C(=O)[C@@H]1CCCN1C(=O)[C@H](Cc1c[nH]cn1)NC(=O)[C@@H]1CCCN1C(=O)[C@H](C)NC(=O)[C@H](CCCNC(=N)N)NC(=O)CNC(=O)[C@@H]1CCC(=O)N1)C(=O)N1CCC[C@H]1C(=O)N1CCC[C@H]1C(=O)O [EVASIN-11c, <EGRAPHPPIPP] ([pGlu]GRAPHPPIPP-OH; C-terminus assumed)	40	2000	67	28	589000			
CC[C@H](C)[C@H](NC(=O)[C@@H]1CCCN1C(=O)[C@@H]1CCCN1C(=O)[C@H](Cc1c[nH]cn1)NC(=O)[C@@H]1CCCN1C(=O)[C@@H]1CCCN1C(=O)[C@H](CCCNC(=N)N)NC(=O)[C@H](C)NC(=O)[C@@H]1CCC(=O)N1)C(=O)N1CCC[C@H]1C(=O)N1CCC[C@H]1C(=O)O [EVASIN-11e, EARPPHPPIPP] ([pGlu]ARPPHPPIPP-OH; C-terminus assumed)			41	35				
CC[C@H](C)[C@H](NC(=O)[C@H](CCC(N)=O)NC(=O)[C@@H]1CCCN1C(=O)[C@H](CCCNC(=N)N)NC(=O)[C@@H]1CCCN1C(=O)[C@H](Cc1c[nH]c2ccccc12)NC(=O)[C@H](C)NC(=O)[C@H](Cc1c[nH]c2ccccc12)NC(=O)CNC(=O)[C@@H]1CCC(=O)N1)C(=O)N1CCC[C@H]1C(=O)N1CCC[C@H]1C(=O)O [EVASIN-12a, <EGWAWPRPQIPP] ([pGlu]GWAWPRPQIPP-OH; C-terminus assumed)	25	25			106000			
CC[C@H](C)[C@H](NC(=O)[C@@H]1CCCN1C(=O)[C@@H]1CCCN1C(=O)CNC(=O)[C@@H]1CCCN1C(=O)[C@@H]1CCCN1C(=O)[C@H](CCCNC(=N)N)NC(=O)CNC(=O)[C@H](Cc1c[nH]c2ccccc12)NC(=O)[C@@H]1CCC(=O)N1)C(=O)N1CCC[C@H]1C(=O)N1CCC[C@H]1C(=O)O [EVASIN-12b, <EWGRPPGPPIPP] ([pGlu]WGRPPGPPIPP-OH; C-terminus assumed)	150	5	340	40	150000			
CC[C@H](C)[C@H](NC(=O)[C@H](CCC(=O)O)NC(=O)[C@@H]1CCCN1C(=O)CNC(=O)[C@@H]1CCCN1C(=O)[C@H](CCCNC(=N)N)NC(=O)[C@@H]1CCCN1C(=O)[C@H](Cc1c[nH]c2ccccc12)NC(=O)CNC(=O)CNC(=O)[C@@H]1CCC(=O)N1)C(=O)N1CCC[C@H]1C(=O)N1CCC[C@H]1C(=O)O [EVASIN-13a, <EGGWPRPGPEIPP] ([pGlu]GGWPRPGPEIPP-OH; C-terminus assumed)	50	50	45	30	473000			
EVASIN-10c (peptide)						253000		
B1						473000	50	50
B2						86000	1	100
B3						150000	150	5
B4							33	130
B5						106000	25	25
B6						550000	1280	399
B7						476000	57	3000
B8						492000	40000	70000
B9						589000	40	2000
